Entries after “also recorded” stand apart in the source; their conditions may differ.
Tests used:
acVHH-V104D+acVHH-M1 = experiment: Yeast display, small molecule-triggered heterodimerization acVHH-V104D + acVHH-M1; assay type: binding, llama; conditions: 500 nM soluble acVHH-V104D ± 10 μM compound
Description: (§1) Expression of the acVHH variants on yeast was induced by culturing the cells in SG-CAA medium (20 g/L galactose, 2 g/L glucose, 6.7 g/L yeast nitrogen base, 5 g/L bacto casamino acids, 10.2 g/L Na2HPO4*7 H2O, 8.56 g/L NaH2PO4*H2O) overnight at 20° C. and 180 rpm. Detection of full-length proteins on the surface of the cells was carried out by staining the cells with anti-c-myc AlexaFluor 488 (9E10, Thermo Fisher). […] After a washing step with PBSA, they were stained with an anti-HA-Alexa Fluor 488 (BioLegend) to gate for displaying yeast cells and the geometric mean fluorescence intensity (gMFI) of binding to acVHH-V104D, detected by co-staining with a Penta-His-Alexa Fluor 647 (Qiagen) (recognizing the His-tag on acVHH-V104D) was measured.
(§2) 56 clones of the library were sequenced as explained in Example 2. […] Their binding and affinity to soluble acVHH-V104D as well as full length display was assessed with yeast surface display as described in Example 2.
(§3) EC50 values were calculated like the KD values by fitting the gMFI binding values to a 1:1 binding interaction model (Zajc et al., Methods Mol Biology. 2022; 2491:155-173).

acVHH-V104D+acVHH-M2 = assay type: binding, llama; conditions: 500 nM soluble acVHH-V104D ± 10 μM compound
Description: as §1

[1] = cited from earlier work
acVHH-V104D/dfM1-2 = experiment: NanoBiT assay in Jurkat T cells, small molecule titration of acVHH-V104D/dfM1-2; assay type: cell-based, llama
From the text: (§4) The ac VHH variants were N-terminally fused to an extracellular globular domain used to assess expression, as well as a transmembrane domain, and C-terminally fused to a subunit of the split NanoLuc (NanoBiT® system), Promega. Thus, the resulting fusion protein consisted of an extracellular globular domain, followed by a transmembrane domain and intracellular ac VHH variants followed by a subunit of split NanoLuc luciferase.
(§5) The different chains built were as follows: the first polypeptide chain comprised truncated EGFR extracellular and transmembrane domain, followed by a 2×G4S linker and cither ac VHH-V104D or ac VHH-WT, followed by a linker (SEQ ID NO:31) and 11S NanoBiT® “Large BiT”, whereas the second polypeptide chain comprised truncated HER2 extracellular and transmembrane domain, followed by a linker (SEQ ID NO:32) and either ac VHH-V104D or ac VHH-WT or ac VHH-M1 or acVHH-M2 or dfM1-1 or dfM1-2, followed by a linker (SEQ ID NO:33) and 114 NanoBiT® “Small BiT”. […] The principle of the assay is as follows: upon binding of (i.e. dimerization) of the respective ac VHH variants, the fused NanoLuc luciferase subunits are brought into close proximity (the two subunits being fused to the two different polypeptide chains, respectively), thus resulting in a functional luciferase enzyme, whose activity can be measured. […]

Raji target cells = experiment: IFN-γ and IL-2 secretion (ELISA) of transduced split CAR T cells co-cultured with Raji target cells; assay type: cell-based, human; conditions: medium, 0.1 μM or 100 μM caffeine, overnight, E:T 2:1
From the text: The nucleotide sequence encoding the monomeric CAR chain 1 (SEQ ID NO:34) containing dfM1-1 was fused to the nucleotide sequence encoding the dimeric CAR chain 2 (SEQ ID NO:36) or to the nucleotide sequence encoding monomeric CAR chain 2 (SEQ ID NO:37) via a furin cleavage site and 2A sequence (SEQ ID NO:41) and cloned into a third generation lentiviral expression vector with puromycin resistence gene (pCDH, System Biosciences). This plasmid, along with second-generation viral packaging plasmids (psPAX2 and pMD2.G, Addgene plasmids #12260 and #12259), was co-transfected in Lenti-X 293T cells (Takara) using the PureFection Transfection Reagent (System Biosciences) according to instructions provided by the manufacturer. Supernatants were collected on day 2 and 3 following transfection and concentrated 100-fold using Lenti-X Concentrator (Takara) according to the manufacturer's instructions. Viral suspensions were resuspended in RPMI-1640 medium supplemented with 10% FCS and 1% penicillin-streptomycin and frozen at −80° C. […]
Supernatants of triplicate wells were pooled and stored at −80° C. IFN-γ and IL-2 secretion was quantified by ELISA using kits from Biolegend (ELISA MAX Deluxe Set Human IFN-γ and ELISA MAX Deluxe Set Human IL-2, respectively), according to the manufacturer's instructions.

acVHH-V104D/acVHH-M1 = conditions: Jurkat T cells; compared with homodimeric switch acVHH-WT
From the text: as §4, §5

acVHH-V104D/dfM1-1 = experiment: NanoBiT assay in Jurkat T cells, small molecule titration of acVHH-V104D/dfM1-1; assay type: cell-based, llama
From the text: as §4, §5

acVHH-V104D = conditions: read-out: binding affinity (KD) of caffeine to acVHH-V104D; SPR multi-cycle kinetics, steady state analysis; acVHH-V104D immobilised on CM5 chip
Description: A stock of 30 μg/mL protein ac VHH-V104D was prepared in 10 mM NaAc buffer of pH 5 and covalently immobilised on a CM5 chip (GE Healthcare) with a 300 sec contact time and 10 μL/min flow rate to reach 4 600 response units (RU). […] KD values were obtained by steady state analysis.

[2] = test system: CD19-positive Jurkat target cells; experiment: Lysis of target cells by split CAR-expressing primary human T cells with or without dimerizer; assay type: cell-based; conditions: 50 μM caffeine or medium only, E:T 2:1, 4 h; split CARs with dfM1-1 or dfM1-2 and acVHH V104D
From the text: 4 different architectures of split CARs consisting of two chains were investigated per acVHH variant where both the first and second chain of the split CAR is either monomeric or dimeric. A dimeric first CAR chain entails an FMC63 scFv followed by a linker followed by a Flag tag followed by a CD8a hinge and transmembrane domain followed by a 4-1BB co-stimulatory domain followed by a linker followed by acVHH dfM1-1 or dfM1-2 (SEQ ID NO:34 where ac VHH is dfM1-1). The only difference for a monomeric first CAR chain is the mutation of the two cysteine residues in the CD8a hinge to serine residues (SEQ ID NO:35). A dimeric second chain entails a DAP10 extracellular domain followed by a CD8 transmembrane domain followed by 2 amino acids followed by a 4-1BB co-stimulatory domain followed by a linker followed by ac VHH V104D followed by a linker followed by CD3z signaling domain followed by a linker followed by m Cherry (SEQ ID NO:36). […]
After electroporation, the cells were incubated for 6 h at 37° C. […] The cells were co-cultured for 4 h at 37° C., then 150 μg/mL luciferin (Xenolight D-luciferin, Perkin Elmer) was added to each well and luminescence was measured after 20 min with an ENSPIRE Multimode plate reader (Perkin Elmer). Specific lysis was calculated according to the formula:

V104D+dfM1-1 = conditions: 500 nM soluble acVHH-V104D ± 10 μM compound
Description: as §1, §2, §3

V104D+dfM1-2 = conditions: 500 nM soluble acVHH-V104D ± 10 μM compound
Description: as §1, §2, §3

[3] = compared with homodimeric switch acVHH-WT
[4] = increasing concentrations of theobromine

Structure (SMILES): Cn1c(=O)[nH]c2ncn(C)c2c1=O [paraxanthine]
- triggering of heterodimerization acVHH-V104D/acVHH-M1 (acVHH-V104D+acVHH-M1): can trigger
- triggering of heterodimerization acVHH-V104D/acVHH-M2 (acVHH-V104D+acVHH-M2): can trigger

Structure (SMILES): Cn1c(=O)c2c(ncn2C)n(C)c1=O [caffeine]
- plasma levels of caffeine ([1]; absence of coffee, tea and chocolate consumption for 21 days, detection limit of the method): < 0.5 µM
- maximum plasma caffeine levels ([1]; after drinking one cup of coffee): ~10 µM
- caffeine plasma levels ([1]; nonhabitual coffee drinkers after coffee abstinence for at least 16 hours): 1.9 ± 1.6 µmol/L
- EC50 for caffeine, V104D+dfM1-2, NanoBiT (acVHH-V104D/dfM1-2; [3]): increased
- IFN-γ and IL-2 secretion of split CAR T cells (Raji target cells): strong dependence
- EC50 for caffeine, V104D+M1, NanoBiT (acVHH-V104D/acVHH-M1): increased
- EC50 for caffeine, V104D+dfM1-1, NanoBiT (acVHH-V104D/dfM1-1; [3]): increased
- Kd (acVHH-V104D): 72.4 mM
- lysis of CD19-positive Jurkat T cells by split CAR T cells [2]: caffeine-dependent cytotoxic activity

Structure (SMILES): Cn1cnc2c1c(=O)[nH]c(=O)n2C [theobromine]
- triggering of heterodimerization acVHH-V104D/acVHH-M1 (acVHH-V104D+acVHH-M1): can trigger
- triggering of heterodimeric switch acVHH-V104D/dfM1-2 (acVHH-V104D/dfM1-2; [4]): can trigger
- triggering of heterodimeric switch acVHH-V104D/dfM1-1 (acVHH-V104D/dfM1-1; [4]): can trigger
- triggering of heterodimerization acVHH-V104D/acVHH-M2 (acVHH-V104D+acVHH-M2): can trigger

Structure (SMILES): Cn1c(=O)c2[nH]cnc2n(C)c1=O [theophylline]
- triggering of heterodimerization acVHH-V104D/acVHH-M1 (acVHH-V104D+acVHH-M1): can trigger; also recorded: can be triggered
- triggering of heterodimerization acVHH-V104D/acVHH-M2 (acVHH-V104D+acVHH-M2): can trigger
- triggering of heterodimerization acVHH-V104D/dfM1-1 (V104D+dfM1-1): can be triggered
- triggering of heterodimerization acVHH-V104D/dfM1-2 (V104D+dfM1-2): can be triggered
